Results published in patent publication US4952589A, “Pyridine compounds” (priority 1984, dated 1990).
Read-outs that look alike come from different tables or passages of the source.

Key:
[1] = tested on: bicuculline injection induced convulsions; details: mice; cited from earlier work
[2] = tested on: leptazol-induced tonic extensor spasm; details: mice; cited from earlier work
[3] = tested on: maximal electroshock seizures; details: mice; cited from earlier work
physchem = details: octanol/water
[4] = tested on: pial artery dilatation induced by histamine; assay: Cat pial artery in situ: antagonism of dilatation induced by perivascularly applied histamine; format: in vivo
[5] = tested on: leptazol-induced tonic extensor spasm; assay: Anticonvulsant activity: leptazol (pentylenetetrazol)-induced convulsions in mice; format: in vivo; details: subcutaneously, dose-dependent (stated for Examples 5 and 6)
[6] = target: T1, brain histamine H2 -receptor (Cavia porcellus, UniProt P47747); assay: Inhibition of 3H-tiotidine binding to guinea pig cerebral cortex membranes
T1 construct: from tissue; host or cells: guinea pig cerebral cortex membranes

[7] = Δ log P (log P octanol/water minus log P cyclohexane/water)
histamine H2 -receptor = target: T2, histamine H2 -receptor (Cavia porcellus, UniProt P47747); assay: Inhibition of histamine-induced tachycardia in the isolated guinea-pig right atrium; format: cell-based
T2 construct: a spontaneously beating isolated portion of the guinea pig right atrium; from tissue; host or cells: guinea pig right atrium
Method: In the guinea pig atrium test a spontaneously beating isolated portion of the guinea pig right atrium is secured under tension (300 mg) between an anchorage and a transducer in a 15 ml tissue bath and immersed in McEwens solution with constant aeration at a temperature of 37° C. The output from the transducer is amplified. Output is in turn fed to a flat bed recorder. Measured amounts of histamine are added to the tissue bath so that the histamine concentration increases step-wise until the rate of beating reaches a maximum. The tissue bath is washed out and filled with fresh McEwens solution containing compound under test. The solution is left in contact with the tissue for 60 min. and measured amounts of histamine are added again until a maximum rate is recorded. The assay is repeated with increasing concentrations of test compound and the dose of histamine giving 50% of maximum rate is noted. A dose ratio (DR) was calculated by comparing the concentrations of histamine required to produce 50% maximum response in the absence and in the presence of the antagonist. A plot of Log DR-1 against LOG D (the concentration of compound under test) is made and the point of intersection with the Log (DR-1) ordinate is taken as the measure of the activity (pA2 value).

[8] = tested on: maximal electroshock seizures; assay: Anticonvulsant activity: maximal electroshock seizures in mice; format: in vivo; details: subcutaneously
[9] = target: T1, brain histamine H2 -receptor; assay: Inhibition of dimaprit stimulated cyclic AMP accumulation in guinea pig hippocampal slices; format: cell-based
[10] = Blood-brain barrier penetration in urethane-anaesthetised rats (radiolabelled compound, infusion); details: rat, intravenous bolus then infusion, approximately 2 μM blood concentrations, at least 2 hours; separate determinations
Method: The levels of compound and inulin in the blood are monitored and the infusion maintained for at least 2 hours until equilibria (or at least approximate blood plateaux) are achieved. The rat is exsanguinated to minimise blood contamination of the brain. […] The tissues are weighed and then dissolved in a tissue solubiliser, e.g. Soluene-100 overnight at 37° C. in glass vials. […] Glacial acetic acid is added to each vial in order to neutralise the soluene and reduce chemiluminescence. Dimilume-30 (15 ml) is added as the scintillant and the vials left for 12 hours in the scintillation counter in order to further reduce chemiluminescence prior to counting for activity.

[11] = tested on: pial artery dilatation induced by histamine; details: cat, locally applied; Wahl & Kuschinsky; cited from earlier work
[12] = 3H-tiotidine, guinea pig cerebral cortex membranes, read-out: pKi cortex (converted)
[13] = isolated guinea pig right atrium, 37° C., 60 min contact, histamine agonist, read-out: pA2 (converted)
[14] = dimaprit stimulated cyclic AMP accumulation, guinea pig hippocampal slices, read-out: pKi (converted)

T1 sequence (P47747 whole entry): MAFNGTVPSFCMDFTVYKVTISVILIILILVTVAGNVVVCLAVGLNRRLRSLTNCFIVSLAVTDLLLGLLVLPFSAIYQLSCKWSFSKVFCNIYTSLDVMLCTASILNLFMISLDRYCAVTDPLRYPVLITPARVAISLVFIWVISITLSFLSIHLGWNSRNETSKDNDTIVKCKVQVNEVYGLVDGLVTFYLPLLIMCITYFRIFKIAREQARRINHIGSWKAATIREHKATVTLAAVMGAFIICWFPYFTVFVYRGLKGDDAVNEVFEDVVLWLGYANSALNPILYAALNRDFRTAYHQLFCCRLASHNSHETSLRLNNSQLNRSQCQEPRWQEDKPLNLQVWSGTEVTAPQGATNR
T2 sequence (P47747 whole entry): as above

| SMILES | Ki [6, 12] [nM] | Kb (histamine H2 -receptor; [13]) [nM] | also measured |
| --- | --- | --- | --- |
| O=C1NC(=O)C(c2ccccc2)(c2ccccc2)N1 [phenytoin sodium] |  |  | antagonism of bicuculline convulsions, known drug [1]: antagonise; antagonism of leptazol (pentylenetetrazol) convulsions, known drug [2]: antagonise; antagonism of maximal electroshock (MES) convulsions, known drug [3]: antagonise |
| c1cc(CN2CCCCC2)cc(OCCCNc2nc3ccccc3s2)c1 [Example 5, 2-[3-[3-(Piperidinomethyl)phenoxy]propylamino]benzthiazole] |  |  | logP (physchem): 1.46; antagonism of pial artery dilatation induced by histamine ([4]; intravenous): antagonised the pial artery dilatation; antagonism of pial artery dilatation induced by histamine ([4]; locally applied): antagonised the pial artery dilatation; doses protecting against leptazol-induced tonic extensor spasm [5]: 10 to 30 mg/kg; Ki [6]: 79.4 nM; Δ log P [7]: 1.74; Kb (histamine H2 -receptor): 25.1 nM; doses protecting against maximal electroshock seizures [8]: 30 to 100 mg/kg; Ki [9]: 15.8 nM |
| Cc1nc(NCCCOc2cccc(CN3CCCCC3)c2)sc1C [Example 14, 2-[3-[3-(Piperidinomethyl)phenoxy]propylamino]-4,5-dimethylthiazole] | 126 | 2510 |  |
| Cn1c(NCCCOc2cccc(CN3CCCCC3)c2)nc2ccccc21 [Example 10, 2-[3-[3-(Piperidinomethyl)phenoxy]propylamino]-1-methylbenzimidazole] | 31.6 | 7940 | Ki [9, 14]: 2 nM |
| c1cc(CN2CCCCC2)cc(OCCCNc2nc3ccccc3o2)c1 [Example 1, 2-[3-[3-(Piperidinomethyl)phenoxy]propylamino]benzoxazole] | 79.4 | 63.1 | doses protecting against leptazol-induced tonic extensor spasm [5]: 10 to 100 mg/kg; doses protecting against maximal electroshock seizures [8]: 30 to 100 mg/kg; Ki [9, 14]: 21.9 nM |
| c1cc(CN2CCCCC2)cc(OCCc2nc3ccccc3[nH]2)c1 [Example 26, 2-[2-[3-(Piperidinomethyl)phenoxy]ethyl]-1H-benzimidazole] | 3980 | 20000 |  |
| Cc1cc2nc(NCCCOc3cccc(CN4CCCCC4)c3)sc2cc1C [Example 24, 2-[3-[3-(Piperidinomethyl)phenoxy]propylamino]-5,6-dimethylbenzthiazole] | 398 | 25100 |  |
| c1cc(CN2CCCCC2)cc(OCCc2c[nH]cn2)c1 [Example 25, 4(5)-[2-[3-(Piperidinomethyl)phenoxy]ethyl]imidazole] | 794 | 25100 |  |
| c1cc(CN2CCCCC2)cc(OCCCNc2nccc3ccccc23)c1 [Example 12, 1-[3-[3-(Piperidinomethyl)phenoxy]propylamino]isoquinoline] | 39.8 | 398 |  |
| c1cc(CN2CCCCC2)cc(OCCNc2nc3ccccc3s2)c1 [Example 16, 2-[2-[3-(Piperidinomethyl)phenoxy]ethylamino]benzthiazole] | 794 | 6310 |  |
| c1cc(CN2CCCCC2)cc(OCCCNc2ccc3ccccc3n2)c1 [Example 3, 2-[3-[3-(Piperidinomethyl)phenoxy]propylamino]quinoline] | 12.6 | 631 | Ki [9, 14]: 10.7 nM |
| c1cc(CN2CCCCC2)cc(OCCCNc2ncnc3ccccc23)c1 [Example 19, 4-[3-[3-(Piperidinomethyl)phenoxy]propylamino]quinazoline] | 25.1 | 20 |  |
| c1cc(CN2CCCCCC2)cc(OCCCNc2nc3ccccc3s2)c1 [Example 23, 2-[3-[3-(Hexahydroazepinomethyl)phenoxy]propylamino]benzthiazole] | 1260 | 316 |  |
| COc1cccnc1NCCCOc1cccc(CN2CCCCC2)c1 [Example 18, 2-[3-[3-(Piperidinomethyl)phenoxy]propylamino]-3-methoxypyridine] | 39.8 | 631 |  |
| c1ccc(NCCCOc2cccc(CN3CCCCC3)c2)nc1 [Example 6, 2-[3-[3-(Piperidinomethyl)phenoxy]propylamino]pyridine] | 100 | 794 | logP (physchem): 2.88; doses protecting against leptazol-induced tonic extensor spasm [5]: 30 to 100 mg/kg; doses protecting against maximal electroshock seizures [8]: 30 to 100 mg/kg; Ki [9, 14]: 56.2 nM |
| c1cnc(NCCCOc2cccc(CN3CCCCC3)c2)nc1 [Example 4, 2-[3-[3-(Piperidinomethyl)phenoxy]propylamino]pyrimidine] | 3160 | 2000 | Ki [9, 14]: 22900 nM |
| c1cc(CN2CCCCC2)cc(OCCCNc2nccs2)c1 [Example 9, 2-[3-[3-(Piperidinomethyl)phenoxy]propylamino]thiazole] | 63.1 | 39.8 | Ki [9, 14]: 63.1 nM |
| CN(C)Cc1cccc(OCCCNc2nc3ccccc3s2)c1 [Example 21, 2-[3-[3-(Dimethylaminomethyl)phenoxy]propylamino]benzthiazole] | 631 | 1260 |  |
| c1cc(CN2CCCC2)cc(OCCCNc2nc3ccccc3s2)c1 [Example 22, 2-[3-[3-(Pyrrolidinomethyl)phenoxy]propylamino]benzthiazole] | 316 | 100 |  |
| COc1cccc(NCCCOc2cccc(CN3CCCCC3)c2)n1 [Example 7, 2-[3-[3-(Piperidinomethyl)phenoxy]propylamino]-6-methoxypyridine] | 501 | 794 |  |
| CN(C)CCCN1c2ccccc2CCc2ccccc21 [Imipramine] |  |  | molar ratio of compound in the brain to compound in the blood [10]: 3.5 |
| c1cc(CN2CCCCC2)cc(OCCCCNc2nc3ccccc3s2)c1 [Example 17, 2-[4-[3-(Piperidinomethyl)phenoxy]butylamino]benzthiazole] | 158 | 126 |  |
| c1cc(CN2CCCCC2)cc(OCCCc2nc3ccccc3[nH]2)c1 [Example 27, 2-[3-[3-(Piperidinomethyl)phenoxy]propyl]-1H-benzimidazole] | 100 | 316 |  |
| c1cc(CN2CCCCC2)cc(OCCCNc2nc3ccccc3[nH]2)c1 [Description 1, 2-[3-[3-(Piperidinomethyl)phenoxy]propylamino]benzimidazole] | 25.1 | 63.1 | Ki [9, 14]: 37.2 nM |
| c1cc(CN2CCCCC2)cc(OCCCCc2nc3ccccc3[nH]2)c1 [Example 28, 2-[4-[3-(Piperidinomethyl)phenoxy]butyl]-1H-benzimidazole] | 39.8 | 126 |  |
| CCOc1cc(NCCCOc2cccc(CN3CCCCC3)c2)nc2ccccc12 [Example 8, 2-[3-[3-(Piperidinomethyl)phenoxy]propylamino]-4-ethoxyquinoline] | 200 | 2000 |  |
| c1cncc(NCCCOc2cccc(CN3CCCCC3)c2)c1 [Example 11, 3-[3-[3-(Piperidinomethyl)phenoxy]propylamino]pyridine] | 794 |  |  |
| CN/C(=N/CCSCc1nc[nH]c1C)NC#N [cimetidine, reference compound] |  |  | antagonism of pial artery dilatation induced by histamine ([4]; intravenous): failed to antagonise; antagonism of pial artery dilatation induced by histamine [11]: antagonises the pial artery dilatation |
